From PubChem BioAssay (NCI)
Where “and” joins values, the source holds several entries; their conditions need not be identical. Identical values can stand only once.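 Briefly, cells in 96-well plates were exposed to five compound concentrations for 48 h, and endpoints were estimated by linear interpolation. At the GI50, growth is halved. TGI denotes the concentration required for complete inhibition of growth.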

How the values were obtained:
Assay in all cases: inhibition of tumour cell growth, NCI panel, 48 h
HOP-92 NSCLC = system: HOP-92 NSCLC
HCT-15 colon = system: HCT-15 colon
SF-539 CNS = system: SF-539 CNS
SF-295 CNS = system: SF-295 CNS
MDA-N = system: MDA-N
SK-MEL-2 melanoma = system: SK-MEL-2 melanoma
PC-3 prostate = system: PC-3 prostate
RPMI-8226 leukemia = system: RPMI-8226 leukemia
HCC-2998 colon = system: HCC-2998 colon
T-47D breast = system: T-47D breast
HOP-62 NSCLC = system: HOP-62 NSCLC
SR leukemia = system: SR leukemia
HL-60(TB) leukemia = system: HL-60(TB) leukemia
OVCAR-8 ovarian = system: OVCAR-8 ovarian
COLO 205 colon = system: COLO 205 colon
SK-MEL-5 melanoma = system: SK-MEL-5 melanoma
NCI-H23 lung = system: NCI-H23 lung
A498 renal = system: A498 renal
TK-10 renal = system: TK-10 renal
KM12 colon = system: KM12 colon
IGROV1 ovarian = system: IGROV1 ovarian
CAKI-1 renal = system: CAKI-1 renal
SW-620 colon = system: SW-620 colon
NCI/ADR-RES ovarian = system: NCI/ADR-RES ovarian
K-562 leukemia = system: K-562 leukemia
ACHN renal = system: ACHN renal
MOLT-4 leukemia = system: MOLT-4 leukemia
MDA-MB-435 = system: MDA-MB-435
NCI-H226 lung = system: NCI-H226 lung
HT29 colon = system: HT29 colon
OVCAR-4 ovarian = system: OVCAR-4 ovarian
EKVX NSCLC = system: EKVX NSCLC
SF-268 CNS = system: SF-268 CNS
UO-31 renal = system: UO-31 renal
NCI-H460 lung = system: NCI-H460 lung
A549 NSCLC = system: A549 NSCLC
UACC-257 melanoma = system: UACC-257 melanoma
SNB-75 CNS = system: SNB-75 CNS
UACC-62 melanoma = system: UACC-62 melanoma
OVCAR-5 ovarian = system: OVCAR-5 ovarian
U251 CNS = system: U251 CNS
786-0 renal = system: 786-0 renal
NCI-H522 lung = system: NCI-H522 lung
HS 578T breast = system: HS 578T breast
M14 melanoma = system: M14 melanoma
MDA-MB-231 breast = system: MDA-MB-231 breast
SK-OV-3 ovarian = system: SK-OV-3 ovarian
MCF7 breast = system: MCF7 breast
DU-145 prostate = system: DU-145 prostate
LOX IMVI melanoma = system: LOX IMVI melanoma
CCRF-CEM leukemia = system: CCRF-CEM leukemia
MALME-3M melanoma = system: MALME-3M melanoma
RXF 393 renal = system: RXF 393 renal
SNB-19 CNS = system: SNB-19 CNS
OVCAR-3 ovarian = system: OVCAR-3 ovarian
SK-MEL-28 melanoma = system: SK-MEL-28 melanoma
SN12C renal = system: SN12C renal
BT-549 breast = system: BT-549 breast
HCT-116 colon = system: HCT-116 colon

Compound: CC(C)[Si](OC1=CCCCCC12C(=O)N(C)c1ccccc12)(C(C)C)C(C)C (configuration not stated)
- TGI (HOP-92 NSCLC): 30.8 µM
- TGI (HCT-15 colon): 33.8 µM
- TGI (SF-539 CNS): 41.7 µM
- TGI (SF-295 CNS): 28.6 µM
- TGI (MDA-N): 79.7 µM
- TGI (SK-MEL-2 melanoma): 37.6 µM
- TGI (PC-3 prostate): > 100 µM
- TGI (RPMI-8226 leukemia): 36.5 µM
- TGI (HCC-2998 colon): 38.3 µM
- TGI (T-47D breast): 21.3 µM
- TGI (HOP-62 NSCLC): 58.1 µM
- TGI (SR leukemia): 67.3 µM
- TGI (HL-60(TB) leukemia): 38.9 µM
- TGI (OVCAR-8 ovarian): 44.6 µM
- TGI (COLO 205 colon): 35.8 µM
- TGI (SK-MEL-5 melanoma): 33.8 µM
- TGI (NCI-H23 lung): 46.1 µM
- TGI (A498 renal): 42.8 µM
- TGI (TK-10 renal): 80.9 µM
- TGI (KM12 colon): 38 µM
- TGI (IGROV1 ovarian): 62.9 µM
- TGI (CAKI-1 renal): 40.7 µM
- TGI (SW-620 colon): 35.6 µM
- TGI (NCI/ADR-RES ovarian): 42.8 µM
- TGI (K-562 leukemia): > 100 µM
- TGI (ACHN renal): 35.9 µM
- TGI (MOLT-4 leukemia): > 100 µM
- TGI (MDA-MB-435): 67.3 µM
- TGI (NCI-H226 lung): 39 µM
- TGI (HT29 colon): 41.1 µM
- TGI (OVCAR-4 ovarian): > 100 µM
- TGI (EKVX NSCLC): 38.6 µM
- TGI (SF-268 CNS): 48.1 µM
- TGI (UO-31 renal): 36.7 µM
- TGI (NCI-H460 lung): 38.4 µM
- TGI (A549 NSCLC): 48.8 µM
- TGI (UACC-257 melanoma): 45.8 µM
- TGI (SNB-75 CNS): 40.4 µM
- TGI (UACC-62 melanoma): 59.2 µM
- TGI (OVCAR-5 ovarian): 33.2 µM
- TGI (U251 CNS): 36.3 µM
- TGI (786-0 renal): 37.7 µM
- TGI (NCI-H522 lung): 33.7 µM
- TGI (HS 578T breast): 61.6 µM
- TGI (M14 melanoma): 49.2 µM
- TGI (MDA-MB-231 breast): 54.8 µM
- TGI (SK-OV-3 ovarian): 46.6 µM
- TGI (MCF7 breast): 34 µM
- TGI (DU-145 prostate): 29.9 µM
- TGI (LOX IMVI melanoma): 35.7 µM
- TGI (CCRF-CEM leukemia): 36.5 µM
- TGI (MALME-3M melanoma): 45.8 µM
- TGI (RXF 393 renal): 21.8 µM
- TGI (SNB-19 CNS): 29.5 µM
- TGI (OVCAR-3 ovarian): 31.8 µM
- TGI (SK-MEL-28 melanoma): 60.4 µM

Compound: O=[N+]([O-])c1ccc2c(N=Nc3c(O)ccc4ccccc34)c(O)cc(S(=O)(=O)O)c2c1
- TGI (HOP-92 NSCLC): 50 µM
- GI50 (HCT-15 colon): 29.9 µM
- TGI (HCT-15 colon): 50 µM and > 100 µM
- TGI (SF-539 CNS): 50.8 µM
- GI50 (SF-295 CNS): 29.5 µM
- TGI (SF-295 CNS): 50 µM and > 100 µM
- GI50 (MDA-N): 45.3 µM
- TGI (MDA-N): 50 µM and > 100 µM
- GI50 (SK-MEL-2 melanoma): 40.9 µM
- TGI (SK-MEL-2 melanoma): 50 µM and > 100 µM
- GI50 (PC-3 prostate): 34.5 µM
- TGI (PC-3 prostate): 50 µM and > 100 µM
- GI50 (RPMI-8226 leukemia): 67.1 µM
- TGI (RPMI-8226 leukemia): 50 µM and > 100 µM
- TGI (HCC-2998 colon): > 100 µM
- GI50 (HOP-62 NSCLC): 17.1 µM
- TGI (HOP-62 NSCLC): 50 µM and > 100 µM
- TGI (SR leukemia): > 100 µM
- GI50 (HL-60(TB) leukemia): 7.58 µM
- TGI (HL-60(TB) leukemia): 14.9 µM and 58.6 µM
- GI50 (OVCAR-8 ovarian): 31.3 µM
- TGI (OVCAR-8 ovarian): 50 µM and > 100 µM
- GI50 (COLO 205 colon): 53.4 µM
- TGI (COLO 205 colon): 50 µM and > 100 µM
- GI50 (SK-MEL-5 melanoma): 46.7 µM
- TGI (SK-MEL-5 melanoma): 50 µM and > 100 µM
- GI50 (NCI-H23 lung): 49.8 µM
- TGI (NCI-H23 lung): 50 µM and > 100 µM
- GI50 (TK-10 renal): 87.3 µM
- TGI (TK-10 renal): 50 µM and > 100 µM
- GI50 (KM12 colon): 49.9 µM
- TGI (KM12 colon): 50 µM and > 100 µM
- GI50 (IGROV1 ovarian): 27.7 µM
- TGI (IGROV1 ovarian): 50 µM and > 100 µM
- TGI (CAKI-1 renal): 50 µM
- GI50 (SW-620 colon): 57.7 µM
- TGI (SW-620 colon): 50 µM and > 100 µM
- GI50 (SN12C renal): 59 µM
- TGI (SN12C renal): 50 µM and > 100 µM
- GI50 (NCI/ADR-RES ovarian): 40.6 µM
- TGI (NCI/ADR-RES ovarian): 33.4 µM and > 100 µM
- GI50 (K-562 leukemia): 25 µM
- TGI (K-562 leukemia): 50 µM and > 100 µM
- GI50 (ACHN renal): 18.1 µM
- TGI (ACHN renal): 50 µM and > 100 µM
- GI50 (MOLT-4 leukemia): 15.7 µM
- TGI (MOLT-4 leukemia): 50 µM and > 100 µM
- GI50 (MDA-MB-435): 47.5 µM
- TGI (MDA-MB-435): 50 µM and > 100 µM
- TGI (NCI-H226 lung): 50 µM
- GI50 (HT29 colon): 49.6 µM
- TGI (HT29 colon): 50 µM and > 100 µM
- TGI (OVCAR-4 ovarian): 50 µM
- GI50 (BT-549 breast): 37.5 µM
- TGI (BT-549 breast): 50 µM and > 100 µM
- GI50 (EKVX NSCLC): 39.4 µM
- TGI (EKVX NSCLC): > 100 µM
- GI50 (SF-268 CNS): 23.9 µM
- TGI (SF-268 CNS): 50 µM and > 100 µM
- GI50 (UO-31 renal): 10.9 µM
- TGI (UO-31 renal): 18.9 µM and 51.5 µM
- TGI (NCI-H460 lung): > 100 µM
- GI50 (A549 NSCLC): 59.7 µM
- TGI (A549 NSCLC): 50 µM and > 100 µM
- GI50 (UACC-257 melanoma): 32 µM
- TGI (UACC-257 melanoma): 50 µM and > 100 µM
- GI50 (SNB-75 CNS): 44.8 µM
- TGI (SNB-75 CNS): 50 µM and > 100 µM
- GI50 (UACC-62 melanoma): 34.2 µM
- TGI (UACC-62 melanoma): 50 µM and > 100 µM
- GI50 (OVCAR-5 ovarian): 70.3 µM
- TGI (OVCAR-5 ovarian): 50 µM and > 100 µM
- GI50 (U251 CNS): 12.5 µM
- TGI (U251 CNS): 50 µM and > 100 µM
- GI50 (786-0 renal): 30.7 µM
- TGI (786-0 renal): 50 µM and > 100 µM
- GI50 (NCI-H522 lung): 17.4 µM
- TGI (NCI-H522 lung): 50 µM and > 100 µM
- GI50 (HS 578T breast): 67.2 µM
- TGI (HS 578T breast): > 100 µM
- TGI (M14 melanoma): 10.5 µM
- GI50 (MDA-MB-231 breast): > 100 µM
- TGI (MDA-MB-231 breast): 50 µM and > 100 µM
- TGI (SK-OV-3 ovarian): 50 µM
- GI50 (HCT-116 colon): 25.6 µM
- TGI (HCT-116 colon): 50 µM and > 100 µM
- TGI (MCF7 breast): > 100 µM
- TGI (DU-145 prostate): > 100 µM
- TGI (LOX IMVI melanoma): > 100 µM
- GI50 (CCRF-CEM leukemia): 19.8 µM
- TGI (CCRF-CEM leukemia): 50 µM and > 100 µM
- GI50 (MALME-3M melanoma): 50.1 µM
- TGI (MALME-3M melanoma): 40.3 µM and > 100 µM
- GI50 (RXF 393 renal): 27.1 µM
- TGI (RXF 393 renal): 50 µM and > 100 µM
- GI50 (SNB-19 CNS): 19.3 µM
- TGI (SNB-19 CNS): 50 µM and > 100 µM
- GI50 (OVCAR-3 ovarian): 9.36 µM
- TGI (OVCAR-3 ovarian): 50 µM and > 100 µM
- GI50 (SK-MEL-28 melanoma): 32.5 µM
- TGI (SK-MEL-28 melanoma): 50 µM and > 100 µM
